Laboratory results reported in patent US20240415790A1, “A COMPOSITION FOR USE IN THE TREATMENT OF INTERVERTEBRAL DISC HERNIATION” (STAYBLE THERAPEUTICS AB, priority 2020, published 2024).
Several values for one entry are separate records, joined by “and”; a condition that tells them apart may be missing. Identical values can stand only once.

Key:
[1] = tested on: patients with chronic discogenic low back pain; assay: Clinical study, exploratory VAS back and leg pain and ODI; format: in vivo, human
Description: Scoring of visual analog scale (VAS) for both back and leg pain and Oswestry Disability Index (ODI) were used as exploratory objectives. The sample size was not based on power calculations but was considered appropriate for a single ascending dose study to provide initial safety data on 3 different dose levels of the LA formulation. The study has been registered on the ClinicalTrials.gov website and on the EU Clinical Trials Register. It was approved by the Stockholm Regional Ethics Committee (approval No. 2016-2323-31/4) and by the Swedish Medical Products Agency (approval No. 5.1-2016-86227).
Disability was evaluated using the ODI.

[2] = tested on: NP and disc height of patients' IVDs; assay: Clinical study, T2-weighted MRI of NP intensity and disc height; format: in vivo, human; parameters: key to Individual scoring of change in NP intensity, Assessor No. 1 / Individual scoring of change in NP intensity, Assessor No. 2 / Individual scoring of change in NP intensity, Assessor No. 3 / Individual scoring of change in NP intensity, Assessor No. 4: 1, clear reduction; 0, no change; settings: for NP intensity change score at T2-weighted MR imaging, Mean ± SD: score 1 clear reduction, 0 no change, 4 assessors
Experimental: The study was a randomized, double-blinded, placebo-controlled, single ascending dose study with the primary objective to evaluate safety and tolerability following intradiscal injection of LA in Omnipaque or placebo (Omnipaque) in 15 patients with chronic discogenic low back pain. The secondary objective was to assess effects on the NP and disc height using T2-weighted MRI.
All MRI investigations were performed using the same scanner (Siemens 1.5 T Avanto) with the following exceptions: Baseline MRI for one placebo-treated patient and 2 patients given the high dose was acquired in a Siemens Symphony 1.5 T scanner while all other scans were done in the Siemens 1.5 T Avanto scanner. Also, baseline and 3 month MRI were done in the Symphony scanner while the other scans were done in the Avanto scanner in 2 placebo-treated patients and one patient treated with the high dose. T1- and T2-weighted sagittal, coronal, and transversal sections were acquired at 4 mm before and after injection of gadolinium contrast.
Disc height measured as the maximal distance between 2 adjacent endplates and Pfirrmann grade were documented at screening and they were followed throughout the study. Since the Pfirrmann criteria are not sensitive enough to detect minor changes in disc hydration, changes in intensity of the NP at T2-weighted MRI were scored by 4 assessors blind to the group assignment of the patients. The assessors were instructed to score no change as “0” and obvious reduction in intensity as “1”, regardless of time after treatment.
Changes in intensity of the NP at T2-weighted MR imaging were scored as 1, clear reduction and 0, no change. The scoring was done by 4 assessors blind to the group assignment of the patients. Reductions in disc height were observed throughout the study (Table 8).

collagen I = assay: Immunohistochemical analysis of collagen I in porcine IVD; format: in vivo; settings: pig, LA 60 mg/mL, treated vs untreated IVDs
Experimental: Since effects of LA on the NP in the subsequent clinical study was planned to be assessed using MRI, the third series focused on the effects of LA (0.2 mL, 60 mg/mL) on sclerotization as measured by T2-weighted MRI. In addition, effects of LA on the expression of collagen I and II were studied by immunohistochemistry (IHC). The macroscopic changes after LA at 60 mg/mL were similar to those described above. The tissue was dehydrated in graded ethanol and embedded in paraffin. Sections were cut on a microtome, dewaxed, and incubated with polyclonal primary antibodies against collagen I (Abcam 34710) or II (Abcam 34712). The antibodies were diluted 250 (collagen I) or 200 (collagen II) times in phosphate-buffered saline containing 1% bovine serum albumin. Incubation was done at room temperature for 60 min. The sections were then incubated for 30 min at room temperature with horseradish peroxidase-conjugated secondary antibodies (Mach 2 Uni HRP, Biocare Medical) and immunoreactivity was visualized using diaminobenzidine (Biocare Medical).

[3] = LA concentration 30, individual patients and IVDs
[4] = LA concentration 60, individual patients and IVDs
[5] = LA concentration 120, individual patients and IVDs

SMILES: CC(O)C(=O)O (centres unmarked) [LA, lactic acid]
- Leg pain (VAS) at baseline ([1]; 45 mg group, baseline): no leg pain
- Mean leg pain at screening ([1]; 90 mg group): 3 mm
- Mean leg pain at screening ([1]; 180 mg group): 14 mm
- VAS (mm) for cLBP, Mean (SD) ([1]; LA 45 mg, Visit 1 (Screening), baseline): 19 mm and 19 (10) mm
- VAS (mm) for cLBP, Mean (SD) ([1]; LA 45 mg, Visit 5 (3 months)): 22 (8) mm
- VAS (mm) for cLBP, Mean (SD) ([1]; LA 45 mg, Visit 6 (6 months)): 52 (28) mm
- VAS (mm) for cLBP, Mean (SD) ([1]; LA 45 mg, Visit 7 (12 months)): 59 (40) mm
- VAS (mm) for cLBP, Mean (SD) ([1]; LA 90 mg, Visit 1 (Screening), baseline): 44 mm and 44 (25) mm
- VAS (mm) for cLBP, Mean (SD) ([1]; LA 90 mg, Visit 5 (3 months)): 44 (22) mm
- VAS (mm) for cLBP, Mean (SD) ([1]; LA 90 mg, Visit 6 (6 months)): 44 (6) mm
- VAS (mm) for cLBP, Mean (SD) ([1]; LA 90 mg, Visit 7 (12 months)): 34 (14) mm
- VAS (mm) for cLBP, Mean (SD) ([1]; LA 180 mg, Visit 1 (Screening), baseline): 52 mm and 52 (18) mm
- VAS (mm) for cLBP, Mean (SD) ([1]; LA 180 mg, Visit 5 (3 months)): 27 (15) mm
- VAS (mm) for cLBP, Mean (SD) ([1]; LA 180 mg, Visit 6 (6 months)): 28 (32) mm
- VAS (mm) for cLBP, Mean (SD) ([1]; LA 180 mg, Visit 7 (12 months)): 61 (26) mm
- NP intensity change score, Median ([2]; LA 30 mg/mL): 0
- Disc height change from baseline (mm) Mean ± SD ([2]; LA 30 mg/mL, 3 months): 0.3 ± 1.3 mm
- Disc height change from baseline (mm) Mean ± SD ([2]; LA 30 mg/mL, 6 months): −0.5 ± 0.7 mm
- Disc height change from baseline (mm) Mean ± SD ([2]; LA 30 mg/mL, 12 months): −0.5 ± 0.7 mm
- NP intensity change score at T2-weighted MR imaging, Mean ± SD ([2]; LA 30 mg/mL): 0.4 ± 0.5
- NP intensity change score, Median ([2]; LA 60 mg/mL): 1
- Disc height change from baseline (mm) Mean ± SD ([2]; LA 60 mg/mL, 3 months): −1.0 ± 0.7 mm
- Disc height change from baseline (mm) Mean ± SD ([2]; LA 60 mg/mL, 6 months): −0.8 ± 0.8 mm
- Disc height change from baseline (mm) Mean ± SD ([2]; LA 60 mg/mL, 12 months): −1.2 ± 0.8 mm
- NP intensity change score at T2-weighted MR imaging, Mean ± SD ([2]; LA 60 mg/mL): 1.0 ± 0.0
- NP intensity change score, Median ([2]; LA 120 mg/mL): 1
- Disc height change from baseline (mm) Mean ± SD ([2]; LA 120 mg/mL, 3 months): −1.2 ± 1.1 mm
- Disc height change from baseline (mm) Mean ± SD ([2]; LA 120 mg/mL, 6 months): −1.4 ± 1.1 mm
- Disc height change from baseline (mm) Mean ± SD ([2]; LA 120 mg/mL, 12 months): −1.8 ± 1.3 mm
- NP intensity change score at T2-weighted MR imaging, Mean ± SD ([2]; LA 120 mg/mL): 0.9 ± 0.3
- Individual scoring of change in NP intensity, Assessor No. 1 [2, 3]: 0 (2×) and 1 (2×)
- Individual scoring of change in NP intensity, Assessor No. 2 [2, 3]: 0 (3×) and 1
- Individual scoring of change in NP intensity, Assessor No. 3 [2, 3]: 0 (2×) and 1 (2×)
- Individual scoring of change in NP intensity, Assessor No. 4 [2, 3]: 0 (2×) and 1 (2×)
- Individual scoring of change in NP intensity, Assessor No. 1 [2, 4]: 1
- Individual scoring of change in NP intensity, Assessor No. 2 [2, 4]: 1
- Individual scoring of change in NP intensity, Assessor No. 3 [2, 4]: 1
- Individual scoring of change in NP intensity, Assessor No. 4 [2, 4]: 1
- Individual scoring of change in NP intensity, Assessor No. 1 [2, 5]: 1
- Individual scoring of change in NP intensity, Assessor No. 2 [2, 5]: 1 (3×) and 0 (2×)
- Individual scoring of change in NP intensity, Assessor No. 3 [2, 5]: 1
- Individual scoring of change in NP intensity, Assessor No. 4 [2, 5]: 1
- % decrease in disc height ([2]; lactic acid 30 mg/mL, 3 months): +3%
- % decrease in disc height ([2]; lactic acid 30 mg/mL, 6 months): 5%
- % decrease in disc height ([2]; lactic acid 30 mg/mL, 12 months): 5%
- % decrease in disc height ([2]; lactic acid 60 mg/mL, 3 months): 11%
- % decrease in disc height ([2]; lactic acid 60 mg/mL, 6 months): 8%
- % decrease in disc height ([2]; lactic acid 60 mg/mL, 12 months): 13%
- % decrease in disc height ([2]; lactic acid 120 mg/mL, 3 months): 11%
- % decrease in disc height ([2]; lactic acid 120 mg/mL, 6 months): 12%
- % decrease in disc height ([2]; lactic acid 120 mg/mL, 12 months): 16%
- Change in IVD width ([2]; patients, after treatment (not shown)): no change in IVD width
- Collagen I immunoreactivity in the NP (collagen I): strongly induced
